Assay results reported in ChEMBL document CHEMBL4765277, “Design, synthesis and biological evaluation of novel indazole-based derivatives as potent HDAC inhibitors via fragment-based virtual screening” (Eur J Med Chem, 2020).
Activity calls are given as the source filed them. No cut-off for these calls is given here.

Legend:
[1] = tested on: HCT-116; assay: Induction of apoptosis in human HCT-116 cells assessed as early apoptotic cells at 3 uM after 24 hrs by Annexin V-FITC/PI staining based flow cytometric analysis (reference value: 4.01%); type: functional
[2] = tested on: HCT-116; assay: Induction of apoptosis in human HCT-116 cells assessed as late apoptotic cells at 1 uM after 24 hrs by Annexin V-FITC/PI staining based flow cytometric analysis (reference value: 5.14%); type: functional
[3] = tested on: HeLa; assay: cells; type: functional, cell-based; details: Homo sapiens, 72 h
Description: Antiproliferative activity against human HeLa cells assessed as reduction in cell viability after 72 hrs by MTT assay

[4] = tested on: MCF7; assay: cells; details: Homo sapiens, MCF7, 72 h
Description: Antiproliferative activity against human MCF7 cells assessed as reduction in cell viability after 72 hrs by MTT assay

[5] = tested on: HCT-116; assay: Induction of cell cycle arrest in human HCT116 cells assessed as cell accumulation at G2/M phase at 3 uM after 24 hrs by Rnase/PI staining based flow cytometric analysis (reference value: 26.4%); type: functional
[6] = tested on: HCT-116; assay: Inhibition of HDAC in human HCT-116 cells assessed as up regulation of acetylated histone H3 protein expression at 1.25 to 10 uM after 8 hrs by Western blot analysis; type: cell-based; details: dose 1.25-10 µM
[7] = tested on: HCT-116; assay: Induction of cell cycle arrest in human HCT116 cells assessed as cell accumulation at G0/G1 phase at 3 uM after 24 hrs by Rnase/PI staining based flow cytometric analysis (reference value: 48.4%); type: functional
[8] = tested on: HCT-116; assay: Induction of apoptosis in human HCT-116 cells assessed as necrotic cells at 1 uM after 24 hrs by Annexin V-FITC/PI staining based flow cytometric analysis (reference value: 0.51%); type: functional
[9] = tested on: HCT-116; assay: Induction of apoptosis in human HCT-116 cells assessed as early apoptotic cells at 10 uM after 24 hrs by Annexin V-FITC/PI staining based flow cytometric analysis (reference value: 4.01%); type: functional
[10] = biological target: Histone deacetylase 2 (Homo sapiens, UniProt Q92769); assay: Inhibition of recombinant human C-terminal His-tagged HDAC2 (1 to end residues) expressed in sf9 insect cells using Boc-Lys(Ac)-AMC as substrate incubated for 60 mins by fluorescence assay
Histone deacetylase 2, sequence (Q92769 whole entry): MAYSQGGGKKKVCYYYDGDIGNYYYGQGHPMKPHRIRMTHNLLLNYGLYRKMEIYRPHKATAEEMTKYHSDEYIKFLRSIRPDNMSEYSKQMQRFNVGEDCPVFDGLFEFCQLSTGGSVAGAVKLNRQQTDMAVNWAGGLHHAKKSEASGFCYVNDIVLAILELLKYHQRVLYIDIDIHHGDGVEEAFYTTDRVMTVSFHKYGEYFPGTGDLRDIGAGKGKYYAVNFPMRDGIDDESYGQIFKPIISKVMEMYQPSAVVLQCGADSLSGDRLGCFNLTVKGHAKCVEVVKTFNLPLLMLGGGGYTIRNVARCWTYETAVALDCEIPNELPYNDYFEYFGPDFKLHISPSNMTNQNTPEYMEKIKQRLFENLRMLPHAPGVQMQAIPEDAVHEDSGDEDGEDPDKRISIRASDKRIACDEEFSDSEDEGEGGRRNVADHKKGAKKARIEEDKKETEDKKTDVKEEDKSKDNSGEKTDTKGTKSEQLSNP

[11] = tested on: HCT-116; assay: Induction of apoptosis in human HCT-116 cells assessed as necrotic cells at 3 uM after 24 hrs by Annexin V-FITC/PI staining based flow cytometric analysis (reference value: 0.51%); type: functional
[12] = tested on: HCT-116; assay: Induction of apoptosis in human HCT-116 cells assessed as necrotic cells at 10 uM after 24 hrs by Annexin V-FITC/PI staining based flow cytometric analysis (reference value: 0.51%); type: functional
[13] = biological target: Histone deacetylase 1 (Homo sapiens, UniProt Q13547); assay: Inhibition of recombinant human C-terminal His/FLAG-tagged HDAC1 (1 to end residues) expressed in sf9 insect cells using Boc-Lys(Ac)-AMC as substrate incubated for 60 mins by fluorescence assay
Histone deacetylase 1, sequence (Q13547 whole entry): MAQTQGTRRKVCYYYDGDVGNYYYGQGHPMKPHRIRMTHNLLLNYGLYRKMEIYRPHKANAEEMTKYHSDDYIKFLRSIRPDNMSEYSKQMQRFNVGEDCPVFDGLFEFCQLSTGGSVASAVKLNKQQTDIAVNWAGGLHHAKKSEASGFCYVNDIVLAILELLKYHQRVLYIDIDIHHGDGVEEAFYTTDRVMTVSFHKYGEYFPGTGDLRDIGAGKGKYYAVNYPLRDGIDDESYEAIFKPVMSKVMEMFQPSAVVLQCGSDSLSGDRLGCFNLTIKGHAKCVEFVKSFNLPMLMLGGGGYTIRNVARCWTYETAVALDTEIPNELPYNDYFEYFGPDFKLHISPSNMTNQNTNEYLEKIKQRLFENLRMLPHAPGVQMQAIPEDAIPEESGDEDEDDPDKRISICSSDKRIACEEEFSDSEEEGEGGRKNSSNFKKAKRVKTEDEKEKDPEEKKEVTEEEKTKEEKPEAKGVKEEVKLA

[14] = tested on: HCT-116; assay: Induction of apoptosis in human HCT-116 cells assessed as viable cells at 10 uM after 24 hrs by Annexin V-FITC/PI staining based flow cytometric analysis (reference value: 90.34%); type: functional; details: read-out: Activity
[15] = tested on: HCT-116; assay: Inhibition of HDAC in human HCT-116 cells assessed as up regulation of acetylated tubulin protein expression at 1.25 to 10 uM after 8 hrs by Western blot analysis; type: cell-based; details: dose 1.25-10 µM
[16] = tested on: HCT-116; assay: Induction of apoptosis in human HCT-116 cells assessed as viable cells at 1 uM after 24 hrs by Annexin V-FITC/PI staining based flow cytometric analysis (reference value: 90.34%); type: functional; details: Homo sapiens, HCT-116, read-out: Activity
[17] = tested on: HCT-116; assay: Induction of apoptosis in human HCT-116 cells assessed as late apoptotic cells at 10 uM after 24 hrs by Annexin V-FITC/PI staining based flow cytometric analysis (reference value: 5.14%); type: functional
[18] = tested on: HCT-116; assay: Induction of apoptosis in human HCT-116 cells assessed as early apoptotic cells at 1 uM after 24 hrs by Annexin V-FITC/PI staining based flow cytometric analysis (reference value: 4.01%); type: functional
[19] = tested on: HCT-116; assay: Induction of apoptosis in human HCT-116 cells after 24 hrs by Annexin V-FITC/PI staining based flow cytometric analysis; type: functional, cell-based
[20] = biological target: T1, Histone deacetylase 8 (Homo sapiens, UniProt Q9BY41); assay: Inhibition of recombinant human full length C-terminal His-tagged HDAC8 expressed in sf9 insect cells using Boc-Lys(TFA)-AM as substrate incubated for 60 mins by fluorescence assay
T1 sequence (Q9BY41 whole entry): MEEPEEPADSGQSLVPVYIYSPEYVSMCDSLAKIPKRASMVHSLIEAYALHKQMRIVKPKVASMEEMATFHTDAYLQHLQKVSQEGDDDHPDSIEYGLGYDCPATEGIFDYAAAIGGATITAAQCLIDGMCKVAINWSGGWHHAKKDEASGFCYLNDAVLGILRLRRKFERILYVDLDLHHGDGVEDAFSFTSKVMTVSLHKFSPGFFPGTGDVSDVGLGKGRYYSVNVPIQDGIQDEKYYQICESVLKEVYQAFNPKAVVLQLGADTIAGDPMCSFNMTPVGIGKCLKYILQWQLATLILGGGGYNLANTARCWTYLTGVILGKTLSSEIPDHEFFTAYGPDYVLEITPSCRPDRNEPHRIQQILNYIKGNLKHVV

[21] = tested on: HCT-116; assay: Induction of cell cycle arrest in human HCT116 cells assessed as cell accumulation at S phase at 3 uM after 24 hrs by Rnase/PI staining based flow cytometric analysis (reference value: 25.2%); type: functional
[22] = tested on: HCT-116; assay: Induction of apoptosis in human HCT-116 cells assessed as viable cells at 3 uM after 24 hrs by Annexin V-FITC/PI staining based flow cytometric analysis (reference value: 90.34%); type: functional; details: Homo sapiens, HCT-116, read-out: Activity
[23] = tested on: HCT-116; assay: Induction of apoptosis in human HCT-116 cells assessed as late apoptotic cells at 3 uM after 24 hrs by Annexin V-FITC/PI staining based flow cytometric analysis (reference value: 5.14%); type: functional
[24] = tested on: HCT-116; assay: Antiproliferative activity against human HCT-116 cells assessed as reduction in cell viability after 72 hrs by MTT assay; type: functional, cell-based; details: HCT-116, 72 h

IC50 [3]: 4400 nM | IC50 [4]: 900 nM | IC50 [10]: 4.2 nM | IC50 [13]: 2.7 nM | IC50 [20]: 3.6 nM | IC50 [24]: 2100 nM
Structure (SMILES): COc1ccc(-c2ccc3c(NC(=O)CCCCCCC(=O)NO)n[nH]c3c2)cc1
Activity [1]: 13.72% | Activity [2]: 40.02% | Activity [5]: 43.3% | inhibition [6]: Active | Activity [7]: 29.8% | Activity [8]: 0.27% | Activity [9]: 15.64% | Activity [11]: 0.33% | Activity [12]: 1.19% | viability at 10 µM [14]: 20.6% | inhibition [15]: Active | viability at 1 µM [16]: 42.4% | Activity [17]: 62.58% | Activity [18]: 17.34% | Activity [19]: Dose-dependent effect | Activity [21]: 26.9% | viability at 3 µM [22]: 31.4% | Activity [23]: 54.58%
